3 molecules from article PMC6697681, “The predominance of nucleotidyl activation in bacterial phosphonate biosynthesis” (Nature Communications, 2019) can be followed below.

The structures appear in SMILES notation.

Assay [1] deals with T1, Tde-PntC (Tde1415) (Treponema denticola, UniProt Q73MU2).
T1 construct: full two-domain protein (N-terminal PntC, C-terminal AEPT), C-terminal His tag, pET21b (pGH3000), E. coli BL21(DE3); ~70 kDa monomer, dimer ~146 kDa by DLS
As to the kind of experiment: X-ray crystal structure, […] Å. The assay is classed as binding. The note with it: PntC active site, two Mg2+; crystallised with 5 mM CTP and 5 mM AEP.

The next assay addresses T2, Spn-LicC (Streptococcus pneumoniae, UniProt Q8DPI6).
T2 construct: monomer by DLS
As to the kind of experiment: coupled pyrophosphate release assay (EnzChek, MESG/PNP), initial rates. The assay is classed as biochemical. Conditions: substrate inhibition constant; saturating CTP (4 mM), 7 mM MgCl2, room temperature. An excerpt:
coupled pyrophosphate release assay (EnzChek, MESG/PNP), initial rates on Spn-LicC

For a further assay, the target named is T3, Ari-PntC (Ari1348) (Lancefieldella rimae, UniProt B9CM12).
T3 construct: codon-optimized gene in pET29 (pGH2000), C-terminal His6 tag, E. coli BL21(DE3), Ni-NTA and anion exchange; monomer by DLS
The assay is described as above. The assay is classed as biochemical. The note with it: substrate inhibition constant; saturating CTP (4 mM), 7 mM MgCl2, room temperature. An excerpt:
coupled pyrophosphate release assay (EnzChek, MESG/PNP), initial rates on Ari-PntC (Ari1348)

The target in assay [2] is T1, Tde-PntC (Tde1415). As to the kind of experiment: X-ray crystal structure. The format is binding. Conditions: AEPT domain, non-covalently bound PLP.

T1 sequence (Q73MU2 whole entry): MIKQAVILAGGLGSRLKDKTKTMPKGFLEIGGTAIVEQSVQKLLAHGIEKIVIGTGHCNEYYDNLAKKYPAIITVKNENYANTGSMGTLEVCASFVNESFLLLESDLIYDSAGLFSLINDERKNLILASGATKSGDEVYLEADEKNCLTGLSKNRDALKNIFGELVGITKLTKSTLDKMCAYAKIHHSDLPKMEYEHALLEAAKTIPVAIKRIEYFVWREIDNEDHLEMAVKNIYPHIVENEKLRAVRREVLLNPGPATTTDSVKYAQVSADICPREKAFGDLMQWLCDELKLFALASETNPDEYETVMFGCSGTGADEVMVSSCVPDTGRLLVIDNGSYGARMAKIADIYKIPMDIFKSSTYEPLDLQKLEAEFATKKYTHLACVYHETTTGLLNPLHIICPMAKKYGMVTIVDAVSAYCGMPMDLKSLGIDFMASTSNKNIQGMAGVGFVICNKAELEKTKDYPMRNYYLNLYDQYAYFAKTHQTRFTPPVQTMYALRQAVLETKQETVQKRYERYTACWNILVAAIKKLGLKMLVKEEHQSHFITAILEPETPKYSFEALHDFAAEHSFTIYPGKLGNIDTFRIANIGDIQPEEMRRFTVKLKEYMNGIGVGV
T3 sequence (B9CM12 whole entry): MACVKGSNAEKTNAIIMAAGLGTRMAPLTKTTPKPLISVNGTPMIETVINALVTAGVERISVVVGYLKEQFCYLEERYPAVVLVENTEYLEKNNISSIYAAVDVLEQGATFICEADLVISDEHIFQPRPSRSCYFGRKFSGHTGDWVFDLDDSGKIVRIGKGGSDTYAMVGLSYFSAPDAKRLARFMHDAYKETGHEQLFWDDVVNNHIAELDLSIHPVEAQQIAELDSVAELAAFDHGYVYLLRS
T2 sequence (Q8DPI6 whole entry): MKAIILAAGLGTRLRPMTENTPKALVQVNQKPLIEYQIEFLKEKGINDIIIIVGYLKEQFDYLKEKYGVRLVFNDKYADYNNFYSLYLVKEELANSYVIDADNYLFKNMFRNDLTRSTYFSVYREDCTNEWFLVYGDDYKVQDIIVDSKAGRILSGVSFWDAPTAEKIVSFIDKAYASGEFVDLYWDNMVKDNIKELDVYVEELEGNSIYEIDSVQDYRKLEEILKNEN

Turning to `NCCP(=O)(O)OP(=O)(O)OC[C@H]1O[C@@H](n2ccc(N)nc2=O)[C@H](O)[C@@H]1O` [CMP-AEP], on Tde-PntC (Tde1415) [1], the “X-ray crystal structure, 1.95 Å” value was “Tde1415 and Tde1415:CMP-AEP have been deposited in the Protein Data Bank”.

In the case of `C[N+](C)(C)CCOP(=O)([O-])O` [P-Cho], the KS on Spn-LicC amounted to 6.4 ± 0.9 mM; at Ari-PntC (Ari1348), 4 ± 1 mM. For the molecule `Cc1ncc(COP(=O)(O)O)c(C=O)c1O` [PLP], the X-ray crystal structure entry on Tde-PntC (Tde1415) [2] is “The AEPT domain of Tde1415 possesses PLP and the requisite active site features”.
